Literature values as cited in US20170058346A1, “Methods Employing Non-Coding RNA Expression Assays” (SISTEMIC SCOTLAND LIMITED, priority 2009, published 2017).

Tested on: HDAC
Conditions: from a literature review

C[S+](C)[O-] [DMSO, dimethyl sulphoxide]
HDAC inhibitor activity: shown to be an HDAC inhibitor
